# In PubChem BioAssay AID1996:
# Conditions: buffer; pH 7.4; 200.0 µM
row,SMILES,solubility kinetic
1,COc1cc(C(=O)Nc2cccc(C(C)=O)c2)cc(OC)c1OC,> 49.4 µg/mL
2,O=C(NC(=S)NCc1cccnc1)c1cc(Br)ccc1Cl,0.9 µg/mL
3,O=C1OCC(c2ccccc2)=C1c1ccccc1[N+](=O)[O-],> 42.2 µg/mL
4,Cc1cc2cc(CNC(=O)C(C)Oc3ccccc3)ccc2n1C (stereo not drawn),11.4 µg/mL
5,CC(OC(=O)/C=C/c1cccs1)C(=O)NC1CCCCC1C (stereo not drawn),4.9 µg/mL
6,Cc1c(C)c(C)c(S(=O)(=O)NCCc2ccncc2)c(C)c1C,2 µg/mL
7,Cc1nc(S(=O)(=O)Nc2ccc3c(c2)OCCO3)cn1C,13.1 µg/mL
8,Cc1cc(NC(=O)COC(=O)c2ccco2)no1,> 37.5 µg/mL
9,O=C(CCC(=O)c1ccc(Cl)s1)Nc1ncccc1O,> 46.6 µg/mL
10,CSc1ccc(NC(=O)NCc2cccnc2)cc1,> 41 µg/mL
11,O=C(NC1CC1)C1CC(=O)N(c2cccc(Cl)c2Cl)C1 (stereo not drawn),> 47 µg/mL
12,O=C(c1ccccc1)C(Nc1ccccn1)c1ccccc1 (stereo not drawn),27.8 µg/mL
13,O=C(NCCNC(=O)c1ccccn1)c1ccc(-c2ccccc2)cc1,3.3 µg/mL
14,COc1ccc(NC(=O)CCCC(=O)c2ccccc2)cc1,7.1 µg/mL
15,CC(C)c1ccc(N2C(=O)CC(Sc3ncccn3)C2=O)cc1 (stereo not drawn),4 µg/mL
16,O=C1C2C3C=CC(C3)C2C(=O)N1c1ccc2ccccc2c1 (stereo not drawn),12.3 µg/mL
17,N/C(=N\[N+](=O)[O-])N1CCN(C(=O)c2ccccc2)CC1,> 41.6 µg/mL
18,Cc1nc(N)c(Br)c(C)c1Br,6.2 µg/mL
19,CCOC(=O)C1CCN(S(=O)(=O)c2ccccc2)CC1,> 44.6 µg/mL
20,Cc1ccc(S(=O)(=O)N2CCN(C(=O)CCC(=O)Nc3ccc(F)cc3F)CC2)cc1,> 67.7 µg/mL
21,O=C(COC(=O)c1cccc(N2C(=O)C3CC=CCC3C2=O)c1)c1ccccc1 (stereo not drawn),3.2 µg/mL
22,CCCCNc1nc2c(c(=O)n(Cc3ccccc3)c(=O)n2C)n1C,4.1 µg/mL
23,COc1ccc2ccn(S(=O)(=O)c3ccccc3)c2c1,2.9 µg/mL
24,Cc1nc(-c2ccc(C(=O)N3CCCC3)cc2)cs1,> 40.9 µg/mL

row,SMILES,solubility kinetic
1,Cc1c(C=C2C(=O)c3ccccc3C2=O)cc(C#N)n1C,0.6 µg/mL
2,COc1ccc(CCN)cc1O.Cl,> 30.6 µg/mL
3,CN(CC(=O)Nc1cccc2ccccc12)C(=O)c1ccc(NC(=O)CC#N)cc1,> 60.1 µg/mL
4,Cc1ccc(N2Cc3ccccc3C2=O)cc1,7.8 µg/mL
5,O=S(=O)(CCNCc1cccs1)c1ccc(Cl)cc1,32.5 µg/mL
6,Fc1ccc(NC(=S)Nc2cccnc2)c(F)c1F,> 42.5 µg/mL
7,Cl.O=S(=O)(CCc1ccncc1)c1ccc(Cl)cc1,> 47.7 µg/mL
8,O=C(O)c1cccnc1SCC(=O)N1CCCc2ccccc21,47 µg/mL
9,NC(=NC(=O)c1ccc(OC(F)(F)F)cc1)c1ccc(C(F)(F)F)cn1,< 0.3 µg/mL
10,CCn1c(C)cc(=O)cc1-c1ccc(Cl)cc1,> 37.2 µg/mL
11,CCc1cc2c3c(c1)C(C)CC(C)(C)N3C(=O)/C2=C1\SC(=O)NC1=O (stereo not drawn),1.1 µg/mL
12,N#C/C(=C\c1cccs1)C(=O)c1ccccc1Cl,> 41.1 µg/mL
13,C=CCSc1nc2ccccc2c(=O)n1C1CCOC(C)(C)C1 (stereo not drawn),8.6 µg/mL
14,COc1ccccc1OCCOCCN1CCCC1,38.2 µg/mL
15,CC(c1ccccc1)N1C(=O)/C(=C/c2ccncc2)SC1=S (stereo not drawn),1.3 µg/mL
16,CN1CC(C(=O)c2ccc(Cl)cc2)C(c2ccccc2F)C1 (stereo not drawn),> 47.7 µg/mL
17,CC(C)(C)C1COc2ccccc2N1C(=O)c1cccc(Cl)c1 (stereo not drawn),< 0.7 µg/mL
18,CCCCNC(=O)CN1C(=O)NC(CCc2ccccc2)C1=O (stereo not drawn),33.8 µg/mL
19,CSCC[C@H](NC(=O)C1CCN(S(=O)(=O)c2ccc(C)cc2C)CC1)c1nc2ccccc2[nH]1,3.3 µg/mL
20,O=C(COc1ccccc1Cl)NCCCNC(=O)c1cnccn1,51.5 µg/mL
21,CC(C)C(=O)N1CCC(Cc2ccccc2)CC1,33.5 µg/mL
22,O=C(NC1CCCCC1)C(=S)NCc1ccccc1,1.4 µg/mL
23,CCOC(=O)c1ccc2c(c1)N(C)C(=O)c1ccccc1S2,7.7 µg/mL
24,O=C(CCNS(=O)(=O)c1ccccc1)N1CCOCC1,> 44.8 µg/mL

row,SMILES,solubility kinetic
1,CC(=O)Nc1ccc(OS(=O)(=O)c2ccc(Cl)cc2)cc1,38.6 µg/mL
2,Cc1ccc(NC(=O)C2C3CCC(O3)C2C(=O)O)cc1Cl (stereo not drawn),27.8 µg/mL
3,CCN(CC)CCC#CC1(O)c2ccccc2-c2ccccc21,> 45.8 µg/mL
4,Cc1nc(=O)c(-c2ccccc2)c(C)n1-c1ccccc1Cl,> 46.6 µg/mL
5,COc1ccccc1Nc1nc(Cl)nc(Nc2ccccc2OC)n1,< 0.2 µg/mL
6,Cc1ccc(C(=O)N2CCN(C)CC2)cc1[N+](=O)[O-],> 39.5 µg/mL
7,Fc1cccc(/C=C2\CCCC3=C2NC(=S)NC3c2cccc(F)c2)c1 (stereo not drawn),7 µg/mL
8,Cc1ccc2oc(C(=O)N3CCN(C)C[C@@H]3C(C)C)c(C)c2c1,34.3 µg/mL
9,CN(C(=O)CSc1cccc[n+]1[O-])c1ccccc1,35.5 µg/mL
10,CC1CCC2(CC1)NC(=O)N(CC(=O)Nc1cccc(S(=O)(=O)N3CCCCC3)c1)C2=O (stereo not drawn),2.2 µg/mL
11,CN1c2ccccc2C(=O)/C(=C\Nc2ccc(F)cc2)S1(=O)=O,< 0.4 µg/mL
12,Cn1cnc([N+](=O)[O-])c1Sc1ncnc2nc[nH]c12,> 41.6 µg/mL
13,Cc1ccc(S(=O)(=O)N2CCCCC2c2cccnc2)c(C)c1C (stereo not drawn),45.9 µg/mL
14,Cc1nc2c(C)cccc2c2c1COC2,18.4 µg/mL
15,C(=C\c1ccccc1)/CN1CCN(Cc2ccc3c(c2)OCO3)CC1,43 µg/mL
16,CC1Sc2ccc(C(=O)NCc3ccccn3)cc2NC1=O (stereo not drawn),45.6 µg/mL
17,Cc1cccc(NC(=O)CSc2cccc[n+]2[O-])c1C,39.7 µg/mL
18,O=C(c1csc(Nc2cccc3ccccc23)n1)N1CCCC1,13.1 µg/mL
19,N#Cc1ccc(COC(=O)c2ccccn2)cc1,30 µg/mL
20,CC1(C)CC(=O)C(C(O)c2ccc([N+](=O)[O-])cc2)C(C)(C)N1 (stereo not drawn),39.9 µg/mL
21,CCn1c(C(O)c2cc(OC)ccc2OC)nc2ccccc21 (stereo not drawn),> 46.9 µg/mL
22,COc1ccc(S(=O)(=O)n2cnc(C)c2)cc1,> 37.8 µg/mL
23,Cc1ccc(S(=O)(=O)N2CC(C)N(S(C)(=O)=O)C2)cc1 (stereo not drawn),> 47.8 µg/mL
24,S=c1nc(NCc2cccc(Cl)c2)c2ccccc2[nH]1,0.5 µg/mL

row,SMILES,solubility kinetic
1,Cc1ccc(NC(=S)c2ccncc2)c(C)c1,34.2 µg/mL
2,O=C(c1ccccc1Cl)N1CCn2c1nc1ccccc12,29.5 µg/mL
3,CCOc1ccc(/C=C2\SC(=S)N(C(C(=O)O)c3ccccc3)C2=O)cc1OC (stereo not drawn),> 64.4 µg/mL
4,O=C1CCCN1CCCNC(=S)Nc1ccc(F)c(Cl)c1,> 49.5 µg/mL
5,CCOc1ccc(N(CC(=O)N2CCCCCC2)S(=O)(=O)c2ccc(C)cc2)cc1,23.6 µg/mL
6,O=C1CC(Cc2ccccc2)C(=O)N1c1ncccn1 (stereo not drawn),> 40.1 µg/mL
7,COc1ccc(-c2cc(-c3ccc(O)cc3)nc(N)c2C#N)cc1,0.8 µg/mL
8,O=C(COC(=O)c1ccc2c(c1)OCCO2)Nc1ccc(F)cc1,2.6 µg/mL
9,O=C(CN1C(=O)NC(c2ccccc2)(c2ccccc2)C1=O)NCCNCCO,> 59.5 µg/mL
10,Cc1cc(O)c(NC(=O)c2cccc([N+](=O)[O-])c2)cc1C,< 0.3 µg/mL
11,S=c1[nH]c(-c2ccccc2)cn1-c1ccccc1,14.9 µg/mL
12,CC1CC(C)CN(S(=O)(=O)c2cccc3nsnc23)C1 (stereo not drawn),8.4 µg/mL
13,Clc1cc2nc(-c3cccnc3Cl)[nH]c2cc1Cl,0.8 µg/mL
14,COC(=O)c1cc(OC(=O)c2ccc(=O)[nH]c2)cc(C(=O)OC)c1,12.6 µg/mL
15,COc1ccc(C(=O)O/N=C(\N)c2ccccn2)c(OC)c1,> 45.2 µg/mL
16,O=C(CN1c2cccc3cccc(c23)S1(=O)=O)Nc1ccc(F)c(F)c1F,2.9 µg/mL
17,CCn1c(CNC(=O)c2ccccc2F)cc2cc(C)ccc21,0.8 µg/mL
18,O=C(O)C(Cc1ccc(Cl)cc1)Sc1nc2ccccc2[nH]1 (stereo not drawn),42.3 µg/mL
19,Cc1ccccc1C(=O)N1CCc2c([nH]c3ccccc23)C1C(F)(F)F (stereo not drawn),< 0.4 µg/mL
20,CC(C)CNS(=O)(=O)c1ccc(CCC(=O)NCCc2ccccc2)cc1,16.3 µg/mL
21,O=C(CN1CCCCC1)Nc1ccccc1Oc1ccccc1,5.6 µg/mL
22,N#Cc1c(-c2ccccc2)nc(SCc2ccc([N+](=O)[O-])cc2)[nH]c1=O,52 µg/mL
23,Cc1ccc(C(=O)N2CCC(C(=O)NC3CCCC3)CC2)cc1,44 µg/mL
24,CCOc1ccccc1NC(=O)c1csc(C)c1C,16.5 µg/mL

row,SMILES,solubility kinetic
1,CN1CCN(c2ccc(CNS(=O)(=O)c3cccc(F)c3)cc2)CC1,6.7 µg/mL
2,Cc1ccc(/C(O)=C2\C(=O)C(=O)N(C)C2c2cccc([N+](=O)[O-])c2)cc1 (stereo not drawn),51.5 µg/mL
3,Cc1cc(C)cc(OCC(=O)Nc2ccncc2)c1,36.7 µg/mL
4,O=C1OC(c2ccc(F)cc2)=N/C1=C\C=C/c1ccccc1,19.6 µg/mL
5,CC(Oc1ccc(Cl)cc1C(N)=O)C(=O)N1CCc2ccccc21 (stereo not drawn),9.6 µg/mL
6,Cc1[nH]c2ccc(OCc3ccccc3)cc2c1CCN.Cl,> 47.5 µg/mL
7,CCOC(=O)CN1C(=O)C2(OCCCO2)c2cc(Br)ccc21,31.5 µg/mL
8,CC(C(=O)C12CC3CC(CC(C3)C1)C2)N1CCOCC1.Cl (stereo not drawn),> 47.1 µg/mL
9,CCN1CCN(CC(=O)Nc2cc(S(=O)(=O)N3CCCCC3)ccc2Cl)CC1.O=C(O)C(=O)O,> 77.9 µg/mL
10,CCN(CC)C(=O)c1ccc(O)c(OC)c1,> 33.5 µg/mL
11,CC(Sc1ccccc1F)C(=O)Nc1ccc2c(c1)OCCO2 (stereo not drawn),> 50 µg/mL
12,Cc1cc(=O)[nH]c(SCC(=O)NC2CCCc3ccccc32)n1 (stereo not drawn),32.1 µg/mL
13,Cc1cc(C)c(NC(=O)CSCc2c(C)noc2C)c(C)c1,28.1 µg/mL
14,O=C(COc1ccc2ccccc2c1)Nc1nccs1,3.9 µg/mL
15,Cc1cc(Cl)nc(Cl)c1C(=O)NC(=O)NCCC(C)C,34.7 µg/mL
16,Cc1c(-c2ccc(Br)cc2)[n+](=O)c2c(n1[O-])CCCC2,> 50.3 µg/mL
17,Cc1ccc(CNC(=O)CCc2c(C)[nH]c(=O)c(C#N)c2C)cc1,> 48.5 µg/mL
18,Cl.Clc1ccccc1CN1CCNCC1,> 37.1 µg/mL
19,CC(C)c1nc(SCC(=O)NC2CCCCC2)c2ccccc2n1,1.8 µg/mL
20,O=C1COc2ccc(C(=O)COC(=O)Cc3ccccc3F)cc2N1,24 µg/mL
21,O=C(Nc1ccccc1)/C(=C\c1ccco1)NC(=O)c1ccco1,> 48.3 µg/mL
22,O=C(CN1CCOCC1)Nc1ccc([N+](=O)[O-])cc1,39.3 µg/mL
